Experimental data from BigSolDB 2.1.

CCOC(=O)CCC(=O)O[C@H]1[C@H](O[C@@H]2[C@@H](C)[C@H](O[C@H]3C[C@@](C)(OC)[C@@H](O)[C@H](C)O3)[C@@H](C)C(=O)O[C@H](CC)[C@@](C)(O)[C@H](O)[C@@H](C)C(=O)[C@H](C)C[C@@]2(C)O)O[C@H](C)C[C@@H]1N(C)C
solubility (mole fraction)
Conditions | 288.15 K | 293.15 K | 298.15 K | 303.15 K | 308.15 K | 313.15 K | 318.15 K | 323.15 K
in THF | 0.036 | 0.0416 | 0.0491 | 0.058 | 0.0684 | 0.081 | 0.0977 | 0.114
in acetone | 0.0138 | 0.0175 | 0.0219 | 0.0268 | 0.0347 | 0.0425 | 0.0527 | 0.0614
in acetonitrile | 0.0019 | 0.00252 | 0.00332 | 0.00397 | 0.00504 | 0.00703 | 0.00906 | 0.0114
in ethanol | 0.00762 | 0.00966 | 0.0128 | 0.017 | 0.0242 | 0.0323 | 0.0414 | 0.0518
in isopropanol | 0.00814 | 0.0106 | 0.0141 | 0.0187 | 0.0249 | 0.0342 | 0.0459 | 0.0556
in n-hexane | 9.26e-05 | 0.000129 | 0.000158 | 0.000213 | 0.000286 | 0.000371 | 0.000562 | 0.000698
